Starred links: 1 amine or outer side, 2 acyl side, 3 side chain; linkers in the order of their positions; H or OH if unused. Positions of bridges follow the written chain, without caps; N, C: chain ends. Residues, ends and D or L forms follow the SMILES beside them. Chains are numbered I, II in the order given. *: point of attachment. X1 = O=C(CCOCCOCCOCCOCCOCCOCCOCCOCCOCCOCCOCCOCCOCCOCCOCCOCCOCCOCCOCCOCCOCCOCCOCCOCCOCCC(=O)[*:2])[*:1]; X2 = O=C(O)CCOCCOCCOCCOCCOCCOCCOCCOCCOCCOCCOCCOCCOCCOCCOCCOCCOCCOCCOCCOCCOCCOCCOCCOCCOCCC(=O)*; CO(CH2CH2O)5CH2CH2CO = O=C(CCOCCOCCOCCOCCOCCC(=O)[*:2])[*:1]
Assays:
[1] = target: T1, Vascular endothelial growth factor A, long form (Homo sapiens) (UniProt P15692); assay: Binding affinity to human VEGF (13 to 107 residues) expressed in Escherichia coli Rosetta (DE3) cells assessed as change in entropy at 20 degreeC by isothermal titration calorimetry analysis
T1 sequence (whole entry): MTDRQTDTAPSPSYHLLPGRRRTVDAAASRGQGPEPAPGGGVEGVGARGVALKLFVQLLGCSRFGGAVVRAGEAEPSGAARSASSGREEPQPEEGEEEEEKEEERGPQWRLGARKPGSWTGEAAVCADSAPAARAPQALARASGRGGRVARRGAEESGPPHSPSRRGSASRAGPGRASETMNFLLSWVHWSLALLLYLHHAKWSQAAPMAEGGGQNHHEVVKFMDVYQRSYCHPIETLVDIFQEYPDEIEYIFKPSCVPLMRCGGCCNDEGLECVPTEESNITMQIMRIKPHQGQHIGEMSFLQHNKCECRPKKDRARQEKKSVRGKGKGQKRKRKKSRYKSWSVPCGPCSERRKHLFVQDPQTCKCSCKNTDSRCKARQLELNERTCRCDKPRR

[2] = target: T1, Vascular endothelial growth factor A, long form (Homo sapiens); assay: Binding affinity to human VEGF (13 to 107 residues) expressed in Escherichia coli Rosetta (DE3) cells assessed as change in heat capacity at 20 degreeC by isothermal titration calorimetry analysis
[3] = target: T1, Vascular endothelial growth factor A, long form (Homo sapiens); assay: Binding affinity to human VEGF (13 to 107 residues) expressed in Escherichia coli Rosetta (DE3) cells assessed as change in entropy at 37 degreeC by isothermal titration calorimetry analysis
[4] = target: T2, Vascular endothelial growth factor A, long form (Homo sapiens, UniProt P15692); assay: Binding affinity to human VEGF (13 to 107 residues) expressed in Escherichia coli Rosetta (DE3) cells assessed as dissociation constant at 20 degreeC by isothermal titration calorimetry analysis
T2 sequence (P15692 whole entry): T1 sequence (whole entry)

[5] = target: T2, Vascular endothelial growth factor A, long form; assay: Binding affinity to human VEGF (13 to 107 residues) expressed in Escherichia coli Rosetta (DE3) cells assessed as dissociation constant at 37 degreeC by isothermal titration calorimetry analysis
[6] = target: T1, Vascular endothelial growth factor A, long form (Homo sapiens); assay: Binding affinity to human VEGF (13 to 107 residues) expressed in Escherichia coli Rosetta (DE3) cells assessed as change in enthalpy at 37 degreeC by isothermal titration calorimetry analysis
[7] = target: T1, Vascular endothelial growth factor A, long form (Homo sapiens); assay: Binding affinity to human VEGF (13 to 107 residues) expressed in Escherichia coli Rosetta (DE3) cells assessed as Gibbs free energy change at 20 degreeC by isothermal titration calorimetry analysis
[8] = test system: HUVEC; assay: Antiangiogenic activity in human HUVEC cells assessed as inhibition of VEGFA-induced cell migration incubated for 12 hrs by wound healing assay; assay type: functional, cell-based
[9] = target: T1, Vascular endothelial growth factor A, long form (Homo sapiens); assay: Binding affinity to human VEGF (13 to 107 residues) expressed in Escherichia coli Rosetta (DE3) cells assessed as Gibbs free energy change at 37 degreeC by isothermal titration calorimetry analysis
[10] = test system: HUVEC; assay: Antiangiogenic activity in human HUVEC cells assessed as inhibition of VEGFA-induced capillary tube formation incubated for 6 hrs by matrigel based microscopic analysis; assay type: functional, cell-based
[11] = target: T1, Vascular endothelial growth factor A, long form (Homo sapiens); assay: Binding affinity to human VEGF (13 to 107 residues) expressed in Escherichia coli Rosetta (DE3) cells assessed as change in enthalpy at 20 degreeC by isothermal titration calorimetry analysis
[12] = target: T1, Vascular endothelial growth factor A, long form (Homo sapiens); assay: Binding affinity to human VEGF (13 to 107 residues) expressed in Escherichia coli Rosetta (DE3) cells assessed as change in enthalpy at 20 degreeC by direct titration based isothermal titration calorimetry analysis
[13] = target: T2, Vascular endothelial growth factor A, long form; assay: Binding affinity to human VEGF (13 to 107 residues) expressed in Escherichia coli Rosetta (DE3) cells assessed as dissociation constant at 37 degreeC by direct titration based isothermal titration calorimetry analysis
[14] = target: T1, Vascular endothelial growth factor A, long form (Homo sapiens); assay: Binding affinity to human VEGF (13 to 107 residues) expressed in Escherichia coli Rosetta (DE3) cells assessed as change in entropy at 37 degreeC by direct titration based isothermal titration calorimetry analysis
[15] = target: T2, Vascular endothelial growth factor A, long form; assay: Binding affinity to human VEGF (13 to 107 residues) expressed in Escherichia coli Rosetta (DE3) cells assessed as dissociation constant at 20 degreeC by reverse titration based isothermal titration calorimetry analysis
[16] = target: T1, Vascular endothelial growth factor A, long form (Homo sapiens); assay: Binding affinity to human VEGF (13 to 107 residues) expressed in Escherichia coli Rosetta (DE3) cells assessed as change in enthalpy at 37 degreeC by reverse titration based isothermal titration calorimetry analysis
[17] = target: T2, Vascular endothelial growth factor A, long form; assay: Binding affinity to human VEGF (13 to 107 residues) expressed in Escherichia coli Rosetta (DE3) cells assessed as dissociation constant at 37 degreeC by reverse titration based isothermal titration calorimetry analysis
[18] = target: T1, Vascular endothelial growth factor A, long form (Homo sapiens); assay: Binding affinity to human VEGF (13 to 107 residues) expressed in Escherichia coli Rosetta (DE3) cells assessed as change in enthalpy at 37 degreeC by direct titration based isothermal titration calorimetry analysis
[19] = target: T1, Vascular endothelial growth factor A, long form (Homo sapiens); assay: Binding affinity to human VEGF (13 to 107 residues) expressed in Escherichia coli Rosetta (DE3) cells assessed as change in enthalpy at 20 degreeC by reverse titration based isothermal titration calorimetry analysis
[20] = target: T1, Vascular endothelial growth factor A, long form (Homo sapiens); assay: Binding affinity to human VEGF (13 to 107 residues) expressed in Escherichia coli Rosetta (DE3) cells assessed as change in entropy at 37 degreeC by reverse titration based isothermal titration calorimetry analysis
[21] = target: T1, Vascular endothelial growth factor A, long form (Homo sapiens); assay: Binding affinity to human VEGF (13 to 107 residues) expressed in Escherichia coli Rosetta (DE3) cells assessed as change in entropy at 20 degreeC by direct titration based isothermal titration calorimetry analysis
[22] = target: T1, Vascular endothelial growth factor A, long form (Homo sapiens); assay: Binding affinity to human VEGF (13 to 107 residues) expressed in Escherichia coli Rosetta (DE3) cells assessed as change in entropy at 20 degreeC by reverse titration based isothermal titration calorimetry analysis
[23] = target: T2, Vascular endothelial growth factor A, long form; assay: Binding affinity to human VEGF (13 to 107 residues) expressed in Escherichia coli Rosetta (DE3) cells assessed as dissociation constant at 20 degreeC by direct titration based isothermal titration calorimetry analysis

Structure (SMILES)	-TdeltaS [1] [kcal/mol]	DeltaCp [2] [kcal/mol/K]	-TdeltaS [3] [kcal/mol]	Kd [4] [nM]	Kd [5] [nM]	deltaH [6] [kcal/mol]	deltaG [7] [kcal/mol]	Activity [8]	deltaG [9] [kcal/mol]	Activity [10]	deltaH [11] [kcal/mol]	further results
CC[C@H](C)[C@@H]1NC(=O)[C@H](CC(=O)O)NC(=O)[C@@H](NC(C)=O)CSSC[C@@H]2NC(=O)[C@H](CCCCNC(=O)C[C@@H](C(=O)N[C@@H](CC(C)C)C(N)=O)NC(=O)[C@H](CCC(=O)O)NC(=O)[C@H](Cc3ccccc3)NC2=O)NC(=O)[C@H](Cc2c[nH]c3ccccc23)NC(=O)[C@H](CCC(=O)O)NC(=O)[C@H](Cc2c[nH]c3ccccc23)NC(=O)[C@H](CCCCNC(C)=O)NC(=O)[C@H](C(C)C)NC(=O)[C@H](Cc2cnc[nH]2)NC1=O (Ac-CDIHVK(Ac)WEWKCFEDL-NH2; disulfide 1-11; lactam 10-14)	9.66	-0.36	16.2	50	272	-25.5	-9.79	Dose-Dependent Effect	-9.32	Dose-Dependent Effect	-19.5	–
CC[C@H](C)[C@@H]1NC(=O)[C@H](CC(=O)O)NC(=O)[C@@H](NC(C)=O)CSSC[C@@H]2NC(=O)[C@H](CCCCNC(=O)C[C@@H](C(=O)N[C@@H](CC(C)C)C(N)=O)NC(=O)[C@H](CCC(=O)O)NC(=O)[C@H](Cc3ccccc3)NC2=O)NC(=O)[C@H](Cc2c[nH]c3ccccc23)NC(=O)[C@H](CCC(=O)O)NC(=O)[C@H](Cc2c[nH]c3ccccc23)NC(=O)[C@H](CCCCNC(=O)CCOCCOCCOCCOCCOCCOCCOCCOCCOCCOCCOCCOCCOCCOCCOCCOCCOCCOCCOCCOCCOCCOCCOCCOCCOCCC(=O)O)NC(=O)[C@H](C(C)C)NC(=O)[C@H](Cc2cnc[nH]2)NC1=O (Ac-CDIHVK(X2)WEWKCFEDL-NH2; disulfide 1-11; lactam 10-14)	9.51	-0.31	15.5	158	1030	-24	-9.12	Dose-Dependent Effect	-8.5	Dose-Dependent Effect	-18.6	–
CC[C@H](C)[C@@H]1NC(=O)[C@H](CC(=O)O)NC(=O)[C@@H](NC(C)=O)CSSC[C@@H]2NC(=O)[C@H](CCCCNC(=O)C[C@@H](C(=O)N[C@@H](CC(C)C)C(N)=O)NC(=O)[C@H](CCC(=O)O)NC(=O)[C@H](Cc3ccccc3)NC2=O)NC(=O)[C@H](Cc2c[nH]c3ccccc23)NC(=O)[C@H](CCC(=O)O)NC(=O)[C@H](Cc2c[nH]c3ccccc23)NC(=O)[C@H](CCCCNC(=O)CCOCCOCCOCCOCCOCCC(=O)NCCCC[C@@H]2NC(=O)[C@H](C(C)C)NC(=O)[C@H](Cc3cnc[nH]3)NC(=O)[C@H]([C@@H](C)CC)NC(=O)[C@H](CC(=O)O)NC(=O)[C@@H](NC(C)=O)CSSC[C@@H]3NC(=O)[C@H](CCCCNC(=O)C[C@@H](C(=O)N[C@@H](CC(C)C)C(N)=O)NC(=O)[C@H](CCC(=O)O)NC(=O)[C@H](Cc4ccccc4)NC3=O)NC(=O)[C@H](Cc3c[nH]c4ccccc34)NC(=O)[C@H](CCC(=O)O)NC(=O)[C@H](Cc3c[nH]c4ccccc34)NC2=O)NC(=O)[C@H](C(C)C)NC(=O)[C@H](Cc2cnc[nH]2)NC1=O (I: Ac-CDIHVKWEWKCFEDL-NH2 / II: Ac-CDIHVKWEWKCFEDL-NH2; disulfide I:1-I:11, II:1-II:11; linker I:6-II:6 via CO(CH2CH2O)5CH2CH2CO; lactam I:10-I:14, II:10-II:14)	27.3	-0.51	36.4	18	89	-46.4	-10.4	Dose-Dependent Effect	-10	Dose-Dependent Effect	-37.7	–
CC[C@H](C)[C@@H]1NC(=O)[C@H](CC(=O)O)NC(=O)[C@@H](NC(C)=O)CSSC[C@@H]2NC(=O)[C@H](CCCCNC(=O)C[C@@H](C(=O)N[C@@H](CC(C)C)C(N)=O)NC(=O)[C@H](CCC(=O)O)NC(=O)[C@H](Cc3ccccc3)NC2=O)NC(=O)[C@H](Cc2c[nH]c3ccccc23)NC(=O)[C@H](CCC(=O)O)NC(=O)[C@H](Cc2c[nH]c3ccccc23)NC(=O)[C@H](CCCCNC(=O)CCOCCOCCOCCOCCOCCOCCOCCOCCOCCOCCOCCOCCOCCOCCOCCOCCOCCOCCOCCOCCOCCOCCOCCOCCOCCC(=O)NCCCC[C@@H]2NC(=O)[C@H](C(C)C)NC(=O)[C@H](Cc3cnc[nH]3)NC(=O)[C@H]([C@@H](C)CC)NC(=O)[C@H](CC(=O)O)NC(=O)[C@@H](NC(C)=O)CSSC[C@@H]3NC(=O)[C@H](CCCCNC(=O)C[C@@H](C(=O)N[C@@H](CC(C)C)C(N)=O)NC(=O)[C@H](CCC(=O)O)NC(=O)[C@H](Cc4ccccc4)NC3=O)NC(=O)[C@H](Cc3c[nH]c4ccccc34)NC(=O)[C@H](CCC(=O)O)NC(=O)[C@H](Cc3c[nH]c4ccccc34)NC2=O)NC(=O)[C@H](C(C)C)NC(=O)[C@H](Cc2cnc[nH]2)NC1=O (I: Ac-CDIHVKWEWKCFEDL-NH2 / II: Ac-CDIHVKWEWKCFEDL-NH2; disulfide I:1-I:11, II:1-II:11; linker I:6-II:6 via X1; lactam I:10-I:14, II:10-II:14)	26.7	-0.75	39.5	9	26	-50.3	-10.8	Dose-Dependent Effect	-10.8	Dose-Dependent Effect	-37.5	deltaH [12]: -35.6 kcal/mol; Kd [13]: 26 nM; deltaS [14]: -127 cal/mol.K; Kd [15]: 11 nM; deltaH [16]: -50.6 kcal/mol; Kd [17]: 14 nM; deltaH [18]: -50.2 kcal/mol; deltaH [19]: -37.4 kcal/mol; deltaS [20]: -127 cal/mol.K; deltaS [21]: -95.4 cal/mol.K; deltaS [22]: -91.1 cal/mol.K; Kd [23]: 12 nM

Reference: ChEMBL document CHEMBL5346952, “Dimer Peptide Ligands of Vascular Endothelial Growth Factor: Optimizing Linker Length for High Affinity and Antiangiogenic Activity” (J Med Chem, 2023)
